Source: patent US20090318530A1, “PHARMACEUTICAL COMPOSITIONS COMPRISING NK1 RECEPTOR ANTAGONISTS AND SODIUM CHANNEL BLOCKERS” (GLAXO GROUP LIMITED, priority 2007, published 2009)
Read-outs that look alike come from different tables or passages of the source.

Legend:
[1] = Blood and brain drug concentrations in satellite animals; assay type: in vivo; settings: rat; for concentration at 60 min / concentration at 30 min: CD; for concentration at 60 min: intraperitoneal; for concentration at 30 min: subcutaneous
Description: […] Blood and brain samples were taken for analysis of the drug concentrations in these compartments.
All doses were calculated as base. ENa8 was dosed via the subcutaneous (s.c.) route at 1 ml/kg in a 2% v/v DMSO/saline vehicle 30 minutes prior to test. Compound ENK6 was dosed with via the intraperitoneal (i.p.) route 60 minutes before the test. ENK6 was dissolved in saline.

[2] = tested on: threshold for tonic hindlimb extensor seizures; assay: Maximal electroshock seizure threshold (MEST) test, 'up and down' method; assay type: in vivo, rat; settings: male CD rats
Description: This work was conducted in compliance with the Home Office Guidance on the operation of the Animals (Scientific Procedures) Act 1986 and GlaxoSmithKline ethical standards. Male CD rats (100-145 g) were supplied by Charles River, UK. Animals were group housed (6 animal per cage) with free access to food (Standard rodent chow; Harlan, UK) and water under a 12 h light/dark cycle (lights on at 0700 h). A period of at least one week between arrival at GSK and the study was allowed in all cases.
Animals were administered a test compound at the appropriate dose, route and pre-treatment time and returned to their home cage. Testing occurred in a separate room from that used for housing. […] Seizure threshold was determined using the ‘up and down’ method of Kimball et al. (1957)(Kimball A W, Burnett W T Jr, Doherty D G. (1957) Radiat Res. 7(1):1-12). […]
All doses were calculated as base. […]
Induction of seizure is measured as an all-or-nothing effect scored as either present (+) or absent (0) for each animal. […] Drug effects were calculated as the % change in CC50. Significant differences between drug-treated animals and appropriate vehicle treated groups were assessed according to the methods of Litchfield and Wilcoxon (1949). The statistical significance of differences between (5R)-5-(4-{[(2-fluorophenyl)methyl]oxy}phenyl)-L-prolinamide or in combination with ENK6 was assessed using a Student's t test.

Compound | concentration at 60 min ([1]; brain, 30 mg/kg, ENK6 30 mg/kg, ENa8 veh, rat satellite animal n=1, read-out: Brain ENK6) [ng/g] | concentration at 60 min ([1]; brain, ENK6 30 mg/kg + ENa8 1 mg/kg, rat satellite animals n=2, read-out: Brain ENK6) [ng/g] | concentration at 60 min ([1]; brain, ENK6 30 mg/kg + ENa8 3 mg/kg, rat satellite animals n=2, read-out: Brain ENK6) [ng/g] | concentration at 60 min ([1]; whole blood, 30 mg/kg, ENK6 30 mg/kg, ENa8 veh, rat satellite animal n=1, read-out: Blood ENK6) [ng/mL] | concentration at 60 min ([1]; whole blood, ENK6 30 mg/kg + ENa8 1 mg/kg, rat satellite animals n=2, read-out: Blood ENK6) [ng/mL] | concentration at 60 min ([1]; whole blood, ENK6 30 mg/kg + ENa8 3 mg/kg, rat satellite animals n=2, read-out: Blood ENK6) [ng/mL] | seizure threshold in the MEST ([2]; ENK6 30 mg/kg i.p. alone, 60 min before test) | concentration at 30 min ([1]; brain, 1 mg/kg, ENa8 1 mg/kg, ENK6 veh, rat satellite animals n=2, read-out: Brain ENa8) [ng/g] | concentration at 30 min ([1]; brain, 3 mg/kg, ENa8 3 mg/kg, ENK6 veh, rat satellite animals n=2, read-out: Brain ENa8) [ng/g] | concentration at 30 min ([1]; brain, ENa8 1 mg/kg + ENK6 30 mg/kg, rat satellite animals n=2, read-out: Brain ENa8) [ng/g] | concentration at 30 min ([1]; brain, ENa8 3 mg/kg + ENK6 30 mg/kg, rat satellite animals n=2, read-out: Brain ENa8) [ng/g] | concentration at 30 min ([1]; whole blood, 1 mg/kg, ENa8 1 mg/kg, ENK6 veh, rat satellite animals n=2, read-out: Blood ENa8) [ng/mL] | concentration at 30 min ([1]; whole blood, 3 mg/kg, ENa8 3 mg/kg, ENK6 veh, rat satellite animals n=2, read-out: Blood ENa8) [ng/mL] | concentration at 30 min ([1]; whole blood, ENa8 1 mg/kg + ENK6 30 mg/kg, rat satellite animals n=2, read-out: Blood ENa8) [ng/mL] | concentration at 30 min ([1]; whole blood, ENa8 3 mg/kg + ENK6 30 mg/kg, rat satellite animals n=2, read-out: Blood ENa8) [ng/mL] | blood or brain concentration of ENa8 in the presence of ENK6 ([1]; ENa8 1 or 3 mg/kg s.c. with ENK6 30 mg/kg i.p. versus ENa8 alone) | seizure threshold in the MEST ([2]; ENa8 3 mg/kg s.c. alone, 30 min prior to test)
COc1ccc(-n2nnnc2C(F)(F)F)cc1CN[C@H]1CCCN[C@H]1c1ccccc1.Cl.Cl [ENK6, [2-Methoxy-5-(5-trifluoromethyl-tetrazol-1-yl)-benzyl]-([2S,3S]-2-phenyl-piperidin-3-yl)-amine dihydrochloride] | 1510 | 1160 | 881 | 631 | 471 | 414 | no effect |  |  |  |  |  |  |  |  |  | 
Cl.NC(=O)[C@@H]1CC[C@H](c2ccc(OCc3ccccc3F)cc2)N1 [ENa8, (5R)-5-(4-{[(2-fluorophenyl)methyl}oxy]phenyl)-L-prolinamide hydrochloride] |  |  |  |  |  |  |  | 1170 | 2300 | 1340 | 2620 | 188 | 349 | 246 | 456 | No increase | small, but significant increase
